# Test results: patent publication US6653529B2, “Use of the maize X112 mutant ahas 2 gene and imidazolinone herbicides for selection of transgenic monocots, maize, rice and wheat plants resistant to the imidazolinone herbicides” (BASF Aktiengesellschaft, priority 2000, dated 2003)
# “And” between values parts separate entries of the source, which are not always exact repeats. Equal values may be shown once.
# Key:
# Type in all cases: in vivo
# [1] = system: transgenic corn hybrid MAa-7; assay: Greenhouse spray test of corn lines with imidazolinone herbicides, injury score; details: MAa-7; for Score, individual plants (0 dead plants, 5 healthy plants with no injury): 16 days after treatment; for M.S.: score 0 (dead) to 5 (healthy), 16 days
# Excerpt: (§1) Grow one corn plant per pot (5×5 inch) in a 3×5 flat till three- to four-leaf stage (about 9 to 13 days depending on the weather). On the day of spraying, water the plants well and let excess water drip out. Spray plants on a belt-sprayer with the imidazolinone herbicides at desired rates. […] When temperature was too high, base water plants to prevent wilting. Closely observe the plants for the next two to three weeks. Symptoms of herbicide injury will be visible three days after spraying and susceptible plants will die within two to three weeks depending on temperature.
# (§2) The plants were rated on a scale of 0-5 with 0 for dead plants and 5 for healthy plants with no or minimum injury.
# (§3) Two transgenic hybrids BAa-4 and MAa-7 lines (see FIG. 5 for their pedigree), a non-transformed control line B×A (B73×A188), 8962IT (heterozygous XI12 imi-tolerant corn line), 8962 (wild type control) and 3395IR (homozygous XA17 imi-resistant corn line) (8962IT and 8962 were from ICI, now Garst Seed Company, Slater, Iowa 50244, and 3395IR was from Pioneer Hi-Bred International Inc, Iowa 50306-3453). Plants were sprayed with 4, 8, 16 or 20×PURSUIT® imazethapyr, ARSENAL® imazapyr, CADRE® imazameth or RAPTOR® imazamox. Plants were scored 0 to 5 (with 0 being dead plants, 5 being healthy plants with no injury) individually 16 days after herbicide treatments. […] For the four tested imidazolinones, transgenic plants could tolerate higher rates of ARSENAL® imazapyr, PURSUIT® imazethapyr, than CADRE® imazameth and RAPTOR® imazamox.
# [2] = system: transgenic corn hybrid BAa-4; assay: as above; details: BAa-4; for Score, individual plants (0 dead plants, 5 healthy plants with no injury): 16 days after treatment; for M.S.: score 0 (dead) to 5 (healthy), 16 days
# Excerpt: as §1, §2, §3
# [3] = system: 3395IR (homozygous XA17 imi-resistant corn line); assay: as above; details: for Score, individual plants (0 dead plants, 5 healthy plants with no injury): 16 days after treatment; for M.S.: score 0 (dead) to 5 (healthy), 16 days
# Excerpt: as §1, §2, §3
# [4] = system: non-transformed control corn line BxA (B73×A188); assay: as above; details: for Score, individual plants (0 dead plants, 5 healthy plants with no injury): 16 days after treatment; for M.S.: score 0 (dead) to 5 (healthy), 16 days
# Excerpt: as §1, §2, §3
# [5] = system: untransformed Nt rice plants; assay: Response of rice plants to various herbicides, seed set in greenhouse; details: post-emergence, 1× g ai/ha: PURSUIT 62.5, CADRE 32, ARSENAL 24, RAPTOR 32, SCEPTER 125, ACCENT 35, CLASSIC 5, AC322,140 20, LONDAX 68
# Excerpt: (§4) A total of 9 herbicides, 5 imidazolinones, two rice herbicides and ACCENT® (nicosulfuron) and CLASSIC® (clorimuron-ethyl) were applied in this study. Materials and methods were basically the same as described above, except that instead of 6″ pots, flats with 18 (3″×3″ per cell) cells were used, and 10-12 seeds were planted to one 3″×3″ cell. Ten plants were maintained in one cell in the post-emergence application. Each herbicide was sprayed at 4 different rates, 1, 2, 4, and 6×, as either pre or post-emergence applications with three replications per treatment. The name and amount of herbicide applied in this experiment and information relevant to their commercial applications are listed in Table 3. For simplicity and convenience, the lowest concentration used is referred as 1× rate, 2, 4 and 6× rates can be calculated as multiples of 1×.
# (§5) To monitor plant response to various herbicides, data on fresh weight was collected. For pre-emergence applications, all plants from one cell were harvested 32 days after spraying (36-day old plants) and weighed. Twenty-nine days after herbicide application, 5 plants (44-day old plants) from each cell in the post-emergence application, were cut and weighed individually. Mean fresh weight for each treatment was calculated over three replications. The remaining 5 plants were grown in the greenhouse to maturity at which time, panicles of 3 plants were collected, and number of filled seeds and number of total kernels were counted to determine percentage of seed set.
# transgenic rice Line 29 = assay: as above; details: post-emergence, 1× g ai/ha: PURSUIT 62.5, CADRE 32, ARSENAL 24, RAPTOR 32, SCEPTER 125, ACCENT 35, CLASSIC 5, AC322,140 20, LONDAX 68
# Excerpt: as §4, §5
# transgenic rice Line 26 = assay: as above; details: post-emergence, 1× g ai/ha: PURSUIT 62.5, CADRE 32, ARSENAL 24, RAPTOR 32, SCEPTER 125, ACCENT 35, CLASSIC 5, AC322,140 20, LONDAX 68
# Excerpt: as §4, §5
# [6] = system: 8692IT (heterozygous XI12 imi-tolerant corn line); assay: Greenhouse spray test of corn lines with imidazolinone herbicides, injury score; details: for Score, individual plants (0 dead plants, 5 healthy plants with no injury): 16 days after treatment; for M.S.: score 0 (dead) to 5 (healthy), 16 days
# [7] = 4×: PURSUIT 250, RAPTOR 160, ARSENAL 96, CADRE 400 g/ha
# [8] = 8×: PURSUIT 500, RAPTOR 320, ARSENAL 192, CADRE 800 g/ha
# [9] = 16×: RAPTOR 640 g/ha, ARSENAL 384 g/ha, CADRE 1.6 kg/ha
compound,measurement,setting,value
"CC(C)C1(C)N=C(c2ncccc2C(=O)O)NC1=O (stereo not drawn) [ARSENAL ®, imazapyr]","Score, individual plants (0 dead plants, 5 healthy plants with no injury)",[1]; [7],5
same,M.S.,[1]; [7],5
same,"Score, individual plants (0 dead plants, 5 healthy plants with no injury)",[1]; [8],5
same,M.S.,[1]; [8],5
same,"Score, individual plants (0 dead plants, 5 healthy plants with no injury)",[1]; [9],5 (4×) and 4
same,M.S.,[1]; [9],4.8
same,"Score, individual plants (0 dead plants, 5 healthy plants with no injury)",[2]; [7],5
same,M.S.,[2]; [7],5
same,"Score, individual plants (0 dead plants, 5 healthy plants with no injury)",[2]; [8],5
same,M.S.,[2]; [8],5
same,"Score, individual plants (0 dead plants, 5 healthy plants with no injury)",[2]; [9],5 (2×) and 4 (3×)
same,M.S.,[2]; [9],4.4
same,"Score, individual plants (0 dead plants, 5 healthy plants with no injury)",[3]; [7],5
same,M.S.,[3]; [7],5
same,"Score, individual plants (0 dead plants, 5 healthy plants with no injury)",[3]; [8],5
same,M.S.,[3]; [8],5
same,"Score, individual plants (0 dead plants, 5 healthy plants with no injury)",[3]; [9],4 and 5 (4×)
same,M.S.,[3]; [9],4.8
same,"Score, individual plants (0 dead plants, 5 healthy plants with no injury)",[4]; [7],0
same,M.S.,[4]; [7],0
same,"Score, individual plants (0 dead plants, 5 healthy plants with no injury)",[4]; [8],0
same,M.S.,[4]; [8],0
same,"Score, individual plants (0 dead plants, 5 healthy plants with no injury)",[4]; [9],0
same,M.S.,[4]; [9],0
same,% seed-set,[5]; 1× rate,0%
same,No. filled seeds/3 panicles,[5]; 1× rate,0
same,Total No. of kernels/3 panicles,[5]; 1× rate,0
same,% seed-set,[5]; 2× rate,0%
same,No. filled seeds/3 panicles,[5]; 2× rate,0
same,Total No. of kernels/3 panicles,[5]; 2× rate,0
same,% seed-set,[5]; 4× rate,0%
same,No. filled seeds/3 panicles,[5]; 4× rate,0
same,Total No. of kernels/3 panicles,[5]; 4× rate,0
same,% seed-set,[5]; 6× rate,0%
same,No. filled seeds/3 panicles,[5]; 6× rate,0
same,Total No. of kernels/3 panicles,[5]; 6× rate,0
same,% seed-set,transgenic rice Line 29; 1× rate,90%
same,No. filled seeds/3 panicles,transgenic rice Line 29; 1× rate,122
same,Total No. of kernels/3 panicles,transgenic rice Line 29; 1× rate,137
same,% seed-set,transgenic rice Line 29; 2× rate,81%
same,No. filled seeds/3 panicles,transgenic rice Line 29; 2× rate,116
same,Total No. of kernels/3 panicles,transgenic rice Line 29; 2× rate,144
same,% seed-set,transgenic rice Line 29; 4× rate,26%
same,No. filled seeds/3 panicles,transgenic rice Line 29; 4× rate,41
same,Total No. of kernels/3 panicles,transgenic rice Line 29; 4× rate,179
same,% seed-set,transgenic rice Line 29; 6× rate,19%
same,No. filled seeds/3 panicles,transgenic rice Line 29; 6× rate,27
same,Total No. of kernels/3 panicles,transgenic rice Line 29; 6× rate,140
same,% seed-set,transgenic rice Line 26; 1× rate,85%
same,No. filled seeds/3 panicles,transgenic rice Line 26; 1× rate,156
same,Total No. of kernels/3 panicles,transgenic rice Line 26; 1× rate,183
same,% seed-set,transgenic rice Line 26; 2× rate,77%
same,No. filled seeds/3 panicles,transgenic rice Line 26; 2× rate,132
same,Total No. of kernels/3 panicles,transgenic rice Line 26; 2× rate,170
same,% seed-set,transgenic rice Line 26; 4× rate,6%
same,No. filled seeds/3 panicles,transgenic rice Line 26; 4× rate,10
same,Total No. of kernels/3 panicles,transgenic rice Line 26; 4× rate,170
same,% seed-set,transgenic rice Line 26; 6× rate,1%
same,No. filled seeds/3 panicles,transgenic rice Line 26; 6× rate,2
same,Total No. of kernels/3 panicles,transgenic rice Line 26; 6× rate,178
same,"Score, individual plants (0 dead plants, 5 healthy plants with no injury)",[6]; [7],4
same,M.S.,[6]; [7],4
same,"Score, individual plants (0 dead plants, 5 healthy plants with no injury)",[6]; [8],4 (2×) and 3 (3×)
same,M.S.,[6]; [8],3.4
same,"Score, individual plants (0 dead plants, 5 healthy plants with no injury)",[6]; [9],4 and 3 (4×)
same,M.S.,[6]; [9],3.2
